Converted amounts (≈) assume the structure as drawn.
Columns and labels:
[1] = Inhibition of SARS-CoV papain-like protease (723 to 1041 residues) expressed in Escherichia coli BL21(DE3) using Arg-Leu-Arg-Gly-Gly-AMC as substrate by fluorescence method; set-up: species or system Severe acute respiratory syndrome-related coronavirus
[2] = Inhibition of SARS-CoV 3C-like protease (9970 to 10887 residues) expressed in Escherichia coli BL21(DE3) CodonPlus-RIL cells using DABCYL-KTSAVLQSGFRKME-EDANS as substrate by FRET assay; set-up: species or system Severe acute respiratory syndrome-related coronavirus
[3] = Inhibition of SARS-CoV papain-like protease using Ub-7-amino-4-trifluoro-methylcoumarin as substrate incubated for 3 mins by fluorescence method; set-up: species or system Severe acute respiratory syndrome-related coronavirus
[4] = Inhibition of MERS-CoV papain-like protease using Ub-7-amino-4-trifluoro-methylcoumarin as substrate incubated for 3 mins by fluorescence method; set-up: species or system Middle East respiratory syndrome-related coronavirus
[5] = Inhibition of SARS-CoV C-terminal 6His-tagged papain-like protease expressed in Escherichia coli BL21(DE3) using ubiquitin-AMC as substrate preincubated for 10 mins followed by substrate addition by luminescence spectrometric method; set-up: species or system Severe acute respiratory syndrome-related coronavirus
[6] = Inhibition of HcoV-EMC 3C-like protease; set-up: species or system unidentified human coronavirus
[7] = Inhibition of 3C-like protease in SARS-CoV2 infected in African green monkey vero cells assessed as antiviral activity incubated for 1 hr by crystal violet staining based plaque reduction assay; type: cell-based; conditions: Severe acute respiratory syndrome coronavirus 2, Vero
[8] = Inhibition of SARS-CoV C-terminal (GPH6 residues)-fused wild type 3C-like protease expressed in Escherichia coli BL21(DE3) cells using MCA-AVLQSGFR-Lys(Dnp)-Lys-NH2 s substrate by fluorescence method; set-up: species or system Severe acute respiratory syndrome-related coronavirus
[9] = Inhibition of SARS-CoV wild type 3C-like protease using MCA-AVLQSGFR-Lys(Dnp)-Lys-NH2 s substrate by fluorescence method; set-up: species or system Severe acute respiratory syndrome-related coronavirus
[10] = Inhibition of MERS-CoV NSP13 helicase measured after 5 min by FRET-based assay; set-up: species or system Middle East respiratory syndrome-related coronavirus
[11] = Inhibition of SARS-CoV N-terminal His-tagged 3C-like protease expressed in Escherichia coli GJ1158 using 2-aminobenzoyl-SVTLQSG-Tyr(NO2)-R as substrate by quenched-FRET assay; set-up: species or system Severe acute respiratory syndrome-related coronavirus
[12] = Inhibition of SARS-CoV 3C-like protease using abz-SVTLQSG-Tyr(NO2)R as substrate by spectrofluorimetric assay; set-up: species or system Severe acute respiratory syndrome-related coronavirus
[13] = Inhibition of SARS-CoV2 3C-like protease (3264 to 3569 residues) expressed in Escherichia coli BL21(DE3) BL21-Gold using Dabcyl-KTSAVLQSGFRKM-E(Edans)-NH2 as substrate preincubated for 10 min followed by substrate addition by FRET assay; set-up: species or system Severe acute respiratory syndrome coronavirus 2
[14] = Inhibition of SARS-CoV 3C-like protease by FRET assay; set-up: species or system Severe acute respiratory syndrome-related coronavirus
[15] = Inhibition of MERS-CoV 3C-like protease; set-up: species or system Middle East respiratory syndrome-related coronavirus
[16] = Inhibition of SARS-CoV(BJ-01) 3C-like protease infected in African green monkey Vero cells assessed as reduction in viral titer incubated for 48 hrs by crystal violet staining based plaque reduction assay; type: cell-based; conditions: Severe acute respiratory syndrome-related coronavirus, BJ-01, Vero
[17] = Inhibition of His-tagged SARS-CoV HKU39849 3C-like protease expressed in Escherichia coli BL21 assessed as reduction in cleavage activity using H2N-TSAVLQSGFRKW-COOH as substrate preincubated for 30 mins followed by substrate addition by HPLC-based assay; set-up: species or system Severe acute respiratory syndrome-related coronavirus
[18] = target: T1, mRNA cap guanine-N(7) methyltransferase (Homo sapiens, UniProt O43148)
T1 sequence (O43148 whole entry): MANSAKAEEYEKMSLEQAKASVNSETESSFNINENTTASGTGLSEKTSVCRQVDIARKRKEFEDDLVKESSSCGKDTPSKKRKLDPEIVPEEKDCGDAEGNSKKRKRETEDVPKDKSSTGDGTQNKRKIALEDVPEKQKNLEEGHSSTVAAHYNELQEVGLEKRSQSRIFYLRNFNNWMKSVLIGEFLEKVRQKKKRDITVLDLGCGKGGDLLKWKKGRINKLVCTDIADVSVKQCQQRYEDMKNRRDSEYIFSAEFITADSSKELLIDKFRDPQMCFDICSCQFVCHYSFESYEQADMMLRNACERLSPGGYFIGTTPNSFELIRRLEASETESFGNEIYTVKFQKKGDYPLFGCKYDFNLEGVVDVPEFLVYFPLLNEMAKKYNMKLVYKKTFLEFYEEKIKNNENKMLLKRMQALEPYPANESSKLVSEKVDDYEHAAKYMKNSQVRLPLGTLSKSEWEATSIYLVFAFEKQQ

[19] = target: T1, mRNA cap guanine-N(7) methyltransferase; remark: listed apart in the source
[20] = tested on: guanine-N7 methyltransferase (human versus SARS coronavirus WHU); experiment: in vitro
[21] = tested on: guanine-N7 methyltransferase (human versus SARS-CoV); experiment: in vitro
[22] = Inhibition of SARS-CoV nucleocapsid protein expressed in Escherichia coli BL21 (DE3) incubated for 1 hr by quantum dots-conjugated oligonucleotide biochip-platform based confocal laser scanning microscopic analysis; set-up: species or system Severe acute respiratory syndrome-related coronavirus
[23] = Inhibition of SARS-CoV NSP13 helicase in presence of DT20Cy3 and ReleaseBHQ by FRET-based assay; set-up: species or system Severe acute respiratory syndrome-related coronavirus
[24] = Inhibition of SARS-CoV 3C-like protease expressed in Escherichia coli BL21(DE3) using DABCYL-KTSAVLQSGFRKME-EDANS as substrate preincubated for 1 hr followed by substrate addition and measured after 16 hrs by fluorescence method; set-up: species or system Severe acute respiratory syndrome-related coronavirus
[25] = Inhibition of SARS-CoV wild type NSP13 helicase using Cy3-labeled 31/18-mer as substrate measured after 10 min by FRET-based assay; set-up: species or system Severe acute respiratory syndrome-related coronavirus
[26] = Inhibition of SARS-CoV NSP13 helicase using fluorescein and black hole quencher labelled dsDNA as substrate measured after 10 min by FRET-based assay; set-up: species or system Severe acute respiratory syndrome-related coronavirus
[27] = Inhibition of envelope protein in Murine hepatitis virus A59 infected in mouse L929 cells assessed as reduction in viral replication incubated for 24 hrs by crystal violet staining based plaque reduction assay; type: cell-based; conditions: Murine coronavirus, A59, L929, 24 h
[28] = Inhibition of envelope protein in HCoV-229E infected in human MRC-5 cells assessed as reduction in viral replication incubated for 6 days by crystal violet staining based plaque reduction assay; type: cell-based; conditions: Human coronavirus 229E, MRC5, 144 h
[29] = Inhibition of MERS-CoV (KOR/KNIH/002_05_2015) 3C-like protease expressed in Escherichia coli BL21(DE3) using Dabcyl-KTSAVLQSGFRKME-Edans as substrate by fluorometric assay; set-up: species or system Middle East respiratory syndrome-related coronavirus
[30] = Inhibition of SARS-CoV 3C-like protease expressed in Escherichia coli BL21(DE3) using Dabcyl-KTSAVLQSGFRKME-Edans as substrate by fluorometric assay; set-up: species or system Severe acute respiratory syndrome-related coronavirus
[31] = (§1) Inhibition of SARS-CoV spike protein expressed in Escherichia coli BL21(DE3)pLysS/human ACE2 using 2,2'-azinobis(3-ethylbenzthiazoline-sulfonic acid) at 10 nmol preincubated for 2 hrs with biotinylated S protein followed by incubation with ACE2 for 1 hr and subsequent substrate addition by competitive biotinylated ELISA relative to control; conditions: time 3.0 hrs
[32] = as §1, with “acid)” for “acid) at 10 nmol”, “ELISA” for “ELISA relative to control”

C=C(C)C(Cc1c(OC)ccc(C(=O)/C=C/c2ccc(O)cc2)c1O)C(=O)O (stereo not drawn)
IC50 [1]: 1200 nM
IC50 [2]: 11400 nM

CCN(CC)C(=S)SSC(=S)N(CC)CC
IC50 [3]: 14200 nM
IC50 [4]: 22700 nM

Nc1nc2[nH]cnc2c(=S)[nH]1 [THIOGUANINE]
IC50 [5]: 5000 nM

Cc1cc(C(=O)N[C@@H](C)C(=O)N[C@H](C(=O)N[C@@H](CC(C)C)C(=O)N[C@H](/C=C/C(=O)OCc2ccccc2)C[C@@H]2CCNC2=O)C(C)C)no1
IC50 [6]: 280 nM
EC50 [7]: 16800 nM
Ki [8]: 2300 nM
Ki [9]: 1900 nM

Sc1nnc(NNc2ccc(I)cc2)n1NC1C=CCC1 (stereo not drawn)
IC50 [10]: 2500 nM

O=C(Oc1cncc(Cl)c1)c1cccs1
IC50 [11]: 500 nM

O=C(Cc1cncc(Br)c1)c1ccc(-c2ccc(Cl)cc2)o1
IC50 [12]: 13000 nM

CC(C)(C)OC(=O)Nc1cccn([C@@H](CC2CC2)C(=O)N[C@@H](C[C@@H]2CCCC2=O)C(=O)C(=O)NCc2ccccc2)c1=O
IC50 [13]: 670 nM
IC50 [14]: 900 nM
IC50 [15]: 580 nM

CC1=C(C(=O)OCCc2ccccc2)C(c2ccccc2[N+](=O)[O-])C2=C(CCCC2=O)N1 (stereo not drawn)
IC50 [16]: 8900 nM
IC50 [17]: 2500 nM

Nc1ncnc2c1ncn2[C@@H]1O[C@H](C[C@@H](N)CC[C@H](N)C(=O)O)[C@@H](O)[C@H]1O [SINEFUNGIN]
IC50 [18]: 0.55 nM
IC50 [19]: < 50 nM
selectivity ratio [20]: 0.32
selectivity ratio [21]: < 2.63

O=C(O[C@@H]1Cc2c(O)cc(O)cc2O[C@H]1c1ccc(O)c(O)c1)c1cc(O)c(O)c(O)c1 [(-)-CATECHINGALLATE]
IC50 [22]: 5 ng/mL (≈ 0.0113 µM)

Cc1ncc(CO)c(C23OC4(O)CC(O)(CC(O)(C4)O2)O3)c1O
IC50 [23]: 3000 nM

C[C@@H]1O[C@@H](O[C@H]2[C@@H](Oc3cc(O)c4c(=O)cc(-c5ccc(O)cc5)oc4c3)O[C@H](CO)[C@@H](O)[C@@H]2O)[C@H](O)[C@H](O)[C@H]1O
IC50 [24]: 27500 nM

C=CCn1c(S)nnc1CSc1ccccc1[N+](=O)[O-]
IC50 [25]: 5900 nM
IC50 [26]: 6000 nM

N=C(N)NC(=O)c1nc(Cl)c(N2CCCCCC2)nc1N [N,N-HEXAMETHYLENEAMILORIDE]
EC50 [27]: 3910 nM
EC50 [28]: 1340 nM

O=C(O[C@@H]1Cc2c(O)cc(O)cc2O[C@H]1c1cc(O)c(O)c(O)c1)c1cc(O)c(O)c(O)c1 [GALLOCATECHIN GALLATE]
IC50 [22]: 5 ng/mL (≈ 0.0109 µM)

O=C[C@H](C[C@@H]1CCNC1=O)NC(=O)[C@H](Cc1ccccc1)NC(=O)/C=C/c1ccc(Cl)cc1F
IC50 [29]: 1700 nM
IC50 [30]: 200 nM

H-SQKSIVAYTM-NH2
inhibition [31]: 90%
IC50 [32]: 1.8 nM
